Experimental data: the Kinase Knowledgebase extract (Sharma et al. 2016)

Each compound was assayed against EGFR (human) (UniProt P00533). Settings: her 14.
Sequence of EGFR (human) (P00533 whole entry, looked up): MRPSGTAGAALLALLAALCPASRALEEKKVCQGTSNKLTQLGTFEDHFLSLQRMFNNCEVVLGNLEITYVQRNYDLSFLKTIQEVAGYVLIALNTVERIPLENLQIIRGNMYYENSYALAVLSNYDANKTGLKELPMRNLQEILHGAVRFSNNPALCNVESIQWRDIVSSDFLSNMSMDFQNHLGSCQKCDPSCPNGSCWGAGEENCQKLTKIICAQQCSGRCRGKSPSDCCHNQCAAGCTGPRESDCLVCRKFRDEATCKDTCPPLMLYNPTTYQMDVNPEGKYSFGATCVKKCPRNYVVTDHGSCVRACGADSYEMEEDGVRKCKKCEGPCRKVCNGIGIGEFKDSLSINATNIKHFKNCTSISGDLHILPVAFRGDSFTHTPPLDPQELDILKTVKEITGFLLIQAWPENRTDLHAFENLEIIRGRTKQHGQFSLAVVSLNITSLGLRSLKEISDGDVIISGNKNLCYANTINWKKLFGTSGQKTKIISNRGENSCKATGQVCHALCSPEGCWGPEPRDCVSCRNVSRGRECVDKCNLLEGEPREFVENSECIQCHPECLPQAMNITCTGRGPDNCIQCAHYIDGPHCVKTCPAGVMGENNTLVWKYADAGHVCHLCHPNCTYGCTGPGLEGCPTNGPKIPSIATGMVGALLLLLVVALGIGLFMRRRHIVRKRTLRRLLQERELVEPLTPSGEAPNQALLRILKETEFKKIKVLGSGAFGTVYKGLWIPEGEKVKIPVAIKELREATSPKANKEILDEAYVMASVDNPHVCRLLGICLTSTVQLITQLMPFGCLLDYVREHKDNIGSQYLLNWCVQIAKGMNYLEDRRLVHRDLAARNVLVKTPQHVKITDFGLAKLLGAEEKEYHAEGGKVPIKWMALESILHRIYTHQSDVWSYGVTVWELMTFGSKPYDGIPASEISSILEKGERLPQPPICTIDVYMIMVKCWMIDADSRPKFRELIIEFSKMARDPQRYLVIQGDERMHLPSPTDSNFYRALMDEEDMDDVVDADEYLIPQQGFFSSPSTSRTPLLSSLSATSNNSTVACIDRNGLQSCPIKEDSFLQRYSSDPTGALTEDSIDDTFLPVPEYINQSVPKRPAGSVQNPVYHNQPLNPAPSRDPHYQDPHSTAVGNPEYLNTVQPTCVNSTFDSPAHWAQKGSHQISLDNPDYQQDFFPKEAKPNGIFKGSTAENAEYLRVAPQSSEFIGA

IC50 [µM] | Structure (SMILES)
> 50 | COc1cc(/C=C(\C#N)C(N)=O)cc(CSc2ccccc2C(=O)O)c1O
35 | COc1cc(/C=C(\C#N)C(N)=O)cc(CSc2nc3ccccc3[nH]2)c1O
16 | COc1cc(/C=C(\C#N)C(N)=O)cc(CSc2ccccn2)c1O
10 | COc1cc(/C=C(\C#N)C(N)=O)cc(CSCc2ccccc2Cl)c1O
> 50 | N#C/C(=C\c1cc(O)c(O)c(CSc2nc3ccccc3s2)c1)C(N)=O
15 | COc1cc(C=C(C#N)C#N)cc(CS(=O)(=O)c2ccc(C)cc2)c1O
12.5 | COc1cc(/C=C(\C#N)C(N)=O)cc(CSCc2ccccc2)c1O
9 | COc1cc(/C=C(\C#N)C(N)=O)cc(CSc2ccccc2NC(C)=O)c1O
12.5 | COc1cc(/C=C(\C#N)C(N)=O)cc(CSc2ccccc2)c1O
3 | N#C/C(=C\c1cc(O)c(O)c(CSCc2ccccc2)c1)C(N)=O
> 50 | COc1cc(C=C(C#N)C#N)cc(CSc2ccccc2C(=O)O)c1O
> 50 | COc1cc(C=C(C#N)C#N)cc(CSCC(=O)O)c1O
20 | COc1cc(/C=C(\C#N)C(N)=O)cc(CSCc2ccc(Cl)cc2)c1O
2 | COc1cc(/C=C(\C#N)C(N)=O)cc(CSc2ccc(O)cc2)c1O
6 | COc1cc(C=C(C#N)C#N)cc(CSc2ccccc2)c1O
10 | COc1cc(/C=C(\C#N)C(N)=O)cc(CSc2ccc3ccccc3c2)c1O
6 | COc1cc(/C=C(\C#N)C(N)=O)cc(CSc2nc3ccccc3o2)c1O
2 | COc1cc(/C=C(\C#N)C(=O)c2ccc(O)c(O)c2)cc(CSCc2ccccc2)c1O

Structure (SMILES) | IC50 [µM]
Cc1cc(C=C(C#N)C#N)cc(O)c1O | 13

These compounds were tested against EGFR (UniProt P00533). Settings: not given.
Sequence of EGFR (P00533 whole entry, looked up): as above

IC50 [µM] | Structure (SMILES)
4.5 | COc1cc(/C=C(\C#N)C(=O)c2ccc(C)cc2)cc(CSCc2ccccc2)c1O
